Entries after “also recorded” stand apart in the source; their conditions may differ. Ends that are not written are not given here. Peptide text beside a SMILES is read from it. * marks the point of attachment. PEG = not defined here; 125I = [125I]*
Columns and labels:
AD plaques [1] = test: Deposition of ^125 I-labelled β-amyloid peptides onto plaques in AD brain tissue (homogenate binding, autoradiography); parameters: species or system human; details: for deposition activity of fragment (active / not active): labelled fragment combined with AD amyloid plaque or silk, relative to βA(1-40)-OH; for plaque competence as a function of pH: growth of tissue plaques by deposition of labelled peptides from solution; for activity relative to the full length peptide βA(1-40)-OH: plaque deposition on AD brain sections, two hours, densitometry of autoradiograms
Protocol: Fragments labelled in accordance with the method described herein can be combined with amyloid plaque derived from Alzheimer's disease tissue or other amyloid substance such as silk, and tested for activity, for example, their ability to deposit on these materials.
(§1) Brain tissue was obtained form normal and Alzheimer's disease patients at 0.5 to 14 hours postmortem, frozen on dry ice after collection, and stored at -20° C. until use. For filter binding studies, tissue homogenates were prepared after the method of H. P. Too and M. R. Hanley, Biochem. J. 252:545 (1988), the disclosure of which is incorporated by reference herein. Tissue was homogenized (Polytron, setting 7-8, 5-10 sec) in 5-10 volumes of 50 mM Tricine (pH 7.5) containing 10% sucrose and protease inhibitors (0.01% bacitracin, 0.002% soybean trypsin inhibitor, 0.0002% chicken egg trypsin inhibitor, 1 mM benzamidine hydrochloride) and pelleted at 10,000 g for 20 minutes. The homogenate was then resuspended and washed several times in Tricine buffer containing 120 mM NaCl, 10 mM EDTA, 300 mM KCl and centrifuged at 40,000 g for 20 minutes and stored at -20° C. for less than two months. Membranes (equivalent to about 30 mg tissue) were resuspended in 0.5 ml 50 mM TrisHCl (pH 7.5) containing 1 mg/ml bovine serum albumin (BSA), 10 mM MnCl2, 0.004% bacitracin, 0.002% chymostatin, 0.004% leupeptin, 0.1% dimethylsulfoxide for 30 minutes prior to addition of the radioligand (10^-11 to 10^-9 M) and various concentrations of unlabelled peptides in the same buffer.
(§2) After incubating for two hours at room temperature, the homogenates (final volume 0.575 ml) were filtered through glass fiber filters (Whatman GF/D), presoaked for at least two hours in 1 mg/ml BSA and rinsed with 25 mM Tricine (pH 7.5). After washing twice with 25 mM TrisHCl (pH 7.5) at room temperature, the filters were counted in a gamma counter.
For tissue autoradiography, unfixed tissue was serially sectioned at 5-15 μm and thaw-mounted onto gelatin-coated slices. Slide-mounted sections were stored at -20° C. in closed boxes over desiccant for less than three months before use. Sections were preincubated for 30 minutes and incubated with the radioligand for two hours under the same conditions according to the aforedescribed homogenate binding study. Alternatively, 50 mM TrisHCl rather than Tricine may be used as the buffer. For estimating nonspecific binding, paired serial sections were incubated with the radioligand in the presence of a 10^4 to 10^5 fold excess of the unlabelled peptide. Following incubation with the radioligand, the slides were washed with 50 mM TrisHCl pH 7.5 (four times, two minutes each at 4° C.), then dried at 4° C. and stored in closed boxes over desiccant at room temperature overnight. The fully dried slides were then placed in apposition to tritium-sensitive film alongside iodinated standards. After one week's exposure at -20° C., the film was developed, fixed and washed. […] This approach generated film autoradiograms for quantitative densitometry,a high resolution emulsion autoradiograms for detailed histology, and a counterstained section for identification of cell types from each tissue section.
Briefly peptides were purchased or synthesized by fluorenemethoxycarbonyl chemistry on polystyrene resins, using acid-labile blocking groups for sidechain protection, cleaved with trifluoroacetic acid, and purified by RP-HPLC. […] Autoradiograms were quantitated by densitometry. […] To study the peptide fragments in water we developed a novel approach, measuring NMR data at 750 MHz using a prototype 10 mm ^1 H pulsed field gradient probe. Modified two-dimensional homonuclear TOCSY and NOESY experiments were measured at several pH values and structural information was derived using standard methods.

tissue plaques = test: Effect of metal ions, chelating agent and detergents on deposition of labelled peptide on tissue plaques; type: binding, human
Text: A deposition-enhancing agent may be added prior to the addition of the deposition-affecting agent to be tested.

ceilan katia yarn (silk) = test: Effect of detergents and zinc on deposition of tracer onto silk; type: binding, Bombyx silkworm; details: for effect of detergent on rate of deposition (binding) onto silk: detergent concentration 0 to 1%
[2] = biological target: T1, labelled β-amyloid peptide (Homo sapiens, UniProt P05067); test: In vitro aggregation of labelled β-amyloid peptide in the absence of plaques (centrifugation, supernatant counting); type: biochemical; details: about 10^-9 M labelled peptide, 50 mM Tricine pH 7.5; SDS at 0.01%
T1 construct: made in house; host or cells: chemical synthesis (solid-phase Fmoc) or purchased unlabelled peptide (Bachem); radioiodinated in house
Protocol: A solution of about 10^-9 M labelled β-amyloid peptide in 50 mM Tricine buffer at pH 7.5 was prepared from stock solution of the peptide as described hereinabove in Example 1. The solution was aliquotted into several reaction vessels (polypropylene microcentrifuge tubes) and allowed to stand at room temperature with occasional vortex mixing. At various times, the tubes were centrifuged at 12000 g for 4 minutes, and the fraction of initial (t=0) cpm of labelled peptide remaining in the supernatant fraction determined by removing a small aliquot for counting. The rate of disappearance was dependent on a variety of other conditions which were evaluated using this assay. Thus, the rate of the disappearance depends on peptide concentration (faster at higher peptide concentrations), and on ionic strength (faster at higher salt concentrations). The rate of disappearance was further dependent on the presence of certain detergents such as sodium dodecylsulfate (SDS) (faster in 0.01% SDS; see, FIG. 4), and on the presence of certain organic solvents (slower in the presence of acetonitrile).

[3] = tested on: Alzheimer's disease plaques; test: Competitive inhibition of ^125 I-β-amyloid peptide^1-40 deposition in homogenates of Alzheimer's disease temporal cortex; type: binding, human; details: increasing concentrations of unlabelled peptide, AD temporal cortex homogenates (and sections)
Protocol: as §1, §2

AD plaques [4] = test: Deposition of ^125 I-labelled β-amyloid peptides onto plaques in AD brain tissue (homogenate binding, autoradiography); parameters: species or system human; details: for plaque deposition (plaque competence) at pH 3.9: quantitative densitometry of autoradiograms; for plaque deposition at pH 5.8: 100% = deposition of ^125 I-βA(1-40)-OH at pH 7.4
[5] = biological target: amyloid plaques in Alzheimer's disease brain tissue (homogenates and thin sections); test: deposition of 125I-labelled peptide onto AD brain sections, autoradiography with densitometry

T1 sequence (P05067 672-711): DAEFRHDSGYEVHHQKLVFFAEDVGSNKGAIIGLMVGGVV
Chain of βA(1-28)-OH (peptide) (peptide): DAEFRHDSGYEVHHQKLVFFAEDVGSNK

## CC[C@H](C)[C@H](NC(=O)[C@H](C)NC(=O)CNC(=O)[C@H](CCCCN)NC(=O)[C@H](CC(=O)O)NC(=O)[C@H](CO)NC(=O)CN)C(=O)N[C@H](C(=O)NCC(=O)N[C@@H](CC(C)C)C(=O)N[C@@H](CCSC)C(=O)O)[C@@H](C)CC [D27-βA(25-35)-OH] (H-GSDKGAIIGLM-OH)
AD plaques [1]
  deposition activity of fragment (active / not active): not active (exhibit less than about 1% of the deposition level of βA(1-40)OH)

## O=C(O)CN(CCN(CC(=O)O)CC(=O)O)CC(=O)O [EDTA, ethylene diamine tetraacetic acid]
Tissue plaques; 0.1 mM
  inhibition of the rate of deposition of labelled peptide: five-fold

## CCCCCCCCCCCCOS(=O)(=O)[O-].[Na+] [SDS, sodium dodecyl sulfate]
Tissue plaques
  effect of detergent on deposition of labelled peptide on tissue plaques: enhance deposition
Ceilan katia yarn (silk)
  effect of detergent on rate of deposition (binding) onto silk: increase binding rate
[2]
  rate of disappearance of tracer from the supernatant (aggregation): faster

## CCCCCCCCCCCC[N+](C)(C)CCCS(=O)(=O)[O-] [Zwittergent 312]
Tissue plaques
  effect of detergent on deposition of labelled peptide on tissue plaques: no effect

## CC#N [acetonitrile]
[2]
  rate of disappearance of tracer from the supernatant (aggregation): slower

## [Cl-].[Cl-].[Zn+2] [zinc chloride]
Tissue plaques; 0.1 mM
  enhancement of the rate of deposition of labelled peptide: twenty-fold
Tissue plaques; tracer ^125 I-βA(26-42)-NH2
  effect on deposition of ^125 I-βA(26-42)-NH2 onto AD plaques: unaffected
Ceilan katia yarn (silk); tracer ^125 I-βA(1-40)-OH
  factor of acceleration of deposition of ^125 I-βA(1-40)-OH onto silk thread: about 5
Ceilan katia yarn (silk); tracer ^125 I-βA(26-42)-NH2
  effect on deposition of ^125 I-βA(26-42)-NH2 onto silk: unaffected

## CC(C)C[C@H](NC(=O)[C@H](CCCCN)NC(=O)[C@H](CCC(N)=O)NC(=O)[C@H](Cc1c[nH]cn1)NC(=O)[C@H](Cc1c[nH]cn1)NC(=O)[C@@H](NC(=O)[C@@H](N)CCC(=O)O)C(C)C)C(=O)N[C@H](C(=O)N[C@@H](Cc1ccccc1)C(=O)N[C@@H](Cc1ccccc1)C(=O)N[C@@H](C)C(=O)N[C@@H](CCC(=O)O)C(=O)N[C@@H](CC(=O)O)C(=O)N[C@H](C(=O)NCC(=O)O)C(C)C)C(C)C [βA(11-25)-OH]
AD plaques [1]
  deposition activity of fragment (active / not active): not active (exhibit less than about 1% of the deposition level of βA(1-40)OH)

## CC[C@H](C)[C@H](NC(=O)[C@H](C)NC(=O)CNC(=O)[C@H](CCCCN)NC(=O)[C@H](CC(N)=O)NC(=O)[C@H](CO)NC(=O)CN)C(=O)N[C@H](C(=O)NCC(=O)N[C@@H](CC(C)C)C(=O)N[C@@H](CCSC)C(N)=O)[C@@H](C)CC [βA(25-35)-NH2] (H-GSNKGAIIGLM-NH2)
[3]; listed as β-amyloid peptide^25-35 -NH2
  inhibition of ^125 I-β-amyloid peptide^1-40 deposition onto plaques: competed with the 40-mer radioligand when the former was present at much higher concentrations; also recorded: substantially less potent
AD plaques [1]
  deposition activity of fragment (active / not active): not active (exhibit less than about 1% of the deposition level of βA(1-40)OH)

## (des-A2)-βA(1-40)-OH: 39-mer lacking the alanine at position 2
AD plaques [1]
  deposition activity of fragment (active / not active): active

## PEG-βA(10-35)-NH2: polyethylene glycol conjugate of βA(10-35)-NH2 ({PEG}-YEVHHQKLVFFAEDVGSNKGAIIGLM-NH2; reading uncertain)
AD plaques [1]
  deposition activity of fragment (active / not active): not active (exhibit less than about 1% of the deposition level of βA(1-40)OH)

## Triton X-100
Tissue plaques
  effect of detergent on deposition of labelled peptide on tissue plaques: no effect
Ceilan katia yarn (silk)
  effect of detergent on rate of deposition (binding) onto silk: no effect

## ^125 I-βA(1-28)-OH: ^125 I-labelled βA(1-28)-OH
AD plaques [4]
  plaque deposition (plaque competence) at pH 3.9: plaque-incompetent
  plaque deposition at pH 5.8: < 1%

## ^125 I-βA(1-40)-OH: ^125 I-radioiodinated (monoiodinated, reduced) human β-amyloid peptide 1-40 tracer
AD plaques [1]; 100 pM
  pH optimum of deposition onto plaques in AD tissue: around neutrality
AD plaques [1]; tissue without preformed plaques
  deposition in tissue without preformed plaques: no deposition was detected
AD plaques [4]
  plaque deposition (plaque competence) at pH 3.9: plaque-incompetent
  plaque deposition at pH 5.8: 83%

## ^125 I-βA(10-35)-NH2: ^125 I-labelled βA(10-35)-NH2, labelled at Tyr10 (Y(125I)EVHHQKLVFFAEDVGSNKGAIIGLM-NH2)
AD plaques [4]
  plaque deposition (plaque competence) at pH 3.9: plaque-incompetent
  plaque deposition at pH 5.8: 30%

## rat βA(1-40)-OH: rat and mouse analogue (G^5, F^10, R^14) of β-amyloid peptide, 1-40 (DAEFGHDSGFEVHRQKLVFFAEDVGSNKGAIIGLMVGGVV-OH)
[3]; listed as rat β-amyloid peptide^1-40
  inhibition of ^125 I-β-amyloid peptide^1-40 deposition onto plaques: essentially inactive
[3]; listed as unlabelled rat β-amyloid peptide^1-40
  inhibition of ^125 I-β-amyloid peptide^1-40 deposition onto plaques: did not inhibit
AD plaques [1]
  deposition activity of fragment (active / not active): not active (exhibit less than about 1% of the deposition level of βA(1-40)OH)

## βA(1-28)-OH (peptide)
[5]
  activity relative to βA(1-40)-OH: < 1%

## βA(1-28)-OH: 28 residue fragment corresponding to the amino terminal region
AD plaques [1]
  plaque competence as a function of pH: inactive at all pH values tested
  deposition activity of fragment (active / not active): not active (exhibit less than about 1% of the deposition level of βA(1-40)OH)
  activity relative to the full length peptide βA(1-40)-OH: less than 1%

## βA(1-35)-NH2: carboxyamidated β-amyloid fragment, residues 1-35
AD plaques [1]
  deposition activity of fragment (active / not active): active

## βA(1-40)-PEG: β-amyloid peptide 1-40 conjugated to polyethylene glycol at the C-terminus
AD plaques [1]
  deposition activity of fragment (active / not active): active

## βA(10-35)-NH2: 26 residue carboxyamidated fragment from the central region of the βA sequence (YEVHHQKLVFFAEDVGSNKGAIIGLM-NH2; also: 125I at Tyr10 as tracer (name unlabelled))
AD plaques [1]
  plaque competence as a function of pH: plaque-competent within the pH range of 5 to 9
  deposition activity of fragment (active / not active): active
  activity relative to the full length peptide βA(1-40)-OH: about 35%
AD plaques [1]; physiological (subnanomolar) peptide concentration
  activity as fraction of the activity of βA(1-40)-OH: about 1/3

## βA(10-35)-OH: β-amyloid fragment residues 10-35, free carboxyl terminus (YEVHHQKLVFFAEDVGSNKGAIIGLM-OH)
AD plaques [1]
  deposition activity of fragment (active / not active): active

## YEVHHQKLVFFAEDVGSNKGAIIGLM-NH2 (not fully specified (residue 1)) [βA(10-35)-NH2]
[5]
  activity relative to the full length peptide: 35%

Source: patent publication US5721106A, “In Vitro method for screening β-amyloid deposition” (Regents of the University of Minnesota, priority 1994, dated 1998)
